A short description of test [1]: Cytotoxicity against human NCI-N87 cells assessed as decrease in cell viability after 4 days by MTS assay. Format: functional, cell-based. As to conditions: NCI-N87, 96 h.
Test [2] can be described thus: Cytotoxicity against human KB 8.5 cells expressing MDR1 assessed as decrease in cell viability after 4 days by MTS assay. As to conditions: KB 8.5, 96 h. Format: functional, cell-based. For orientation: Formazan colour is commonly taken as a measure of viable cells.
The subject of the next test is KB. As to the kind of experiment: Resistance ratio of IC50 for human KB 8.5 cells expressing MDR1 to IC50 for MDR1 deficient human KB cells. Format: functional.
Test [3] can be described thus: Cytotoxicity against MDR1 deficient human KB cells assessed as decrease in cell viability after 4 days by MTS assay. Format: functional, cell-based. Particulars: 96 h.
Test [4] is described as follows: Cytotoxicity against human MDA-MB-361/DYT2 cells assessed as decrease in cell viability after 4 days by MTS assay. Format: functional, cell-based. Particulars: MDA-MB-361, 96 h.

Bounds are passed on as bounds.

As usually defined, the IC50 is the midpoint of a concentration-inhibition curve.

Turning to `CC[C@H](C)[C@H](NC(=O)[C@@]1(C)CCCN1C)C(=O)N(C)[C@H](C[C@@H](OC(C)=O)c1nc(C(=O)N[C@@H](Cc2ccccc2)[C@@H](O)C(=O)OC)cs1)C(C)C`, the IC50 stood at 9.91 nM in test [1], 28.4 nM in test [2], 6.28 nM in test [3] and 6.09 nM in test [4]. In addition, the “Ratio IC50” value with KB amounted to 5.
As to `CC[C@H](C)[C@H](NC(=O)[C@@H]1C[C@@H](O)CN1C)C(=O)N(C)[C@H](C[C@@H](OC(C)=O)c1nc(C(=O)N[C@@H](Cc2ccccc2)C[C@H](C)C(=O)OC)cs1)C(C)C`, the IC50 is 106 nM in test [1], 788 nM in test [2], 22.6 nM in test [3] and 26.9 nM in test [4]. In addition, in the test on KB, the “Ratio IC50” value is reported as 35.
On to `CC[C@H](C)[C@H](NC(=O)[C@H]1CCCCN1C)C(=O)N(C)[C@H](C[C@@H](OC(C)=O)c1nc(C(=O)N[C@@H](Cc2ccccc2)[C@@H](O)C(=O)OC)cs1)C(C)C`, for which the IC50 was 1 nM in test [1], 13.4 nM in test [2], 1.21 nM in test [3] and 0.27 nM in test [4]. The “Ratio IC50” value in the test with KB is 11.
For `CC[C@H](C)[C@H](NC(=O)[C@@]1(C)CCCN1)C(=O)N(C)[C@H](C[C@@H](OC(C)=O)c1nc(C(=O)N[C@@H](Cc2ccccc2)C[C@H](C)C(=O)OC)cs1)C(C)C` the same measures were 59 nM, 179 nM, 18.6 nM, 24 nM and 9.
As for `CC[C@H](C)[C@H](NC(=O)[C@@]1(C)CCCN1C)C(=O)N(C)[C@H](C[C@@H](OC(C)=O)c1nc(C(=O)N[C@@H](Cc2ccccc2)C[C@H](C)C(=O)OC)cs1)C(C)C`, the IC50 was 0.89 nM in test [1], 5.52 nM in test [2], 1.04 nM in test [3] and 0.45 nM in test [4]. The “Ratio IC50” value in the test with KB was found to be 5.
As for `CC[C@H](C)[C@H](NC(=O)[C@@]1(C)CCCN1C)C(=O)N(C)[C@H](C[C@@H](OC(C)=O)c1nc(C(=O)N[C@H](CNS(C)(=O)=O)Cc2ccccc2)cs1)C(C)C`, the IC50 in test [1] is 9.24 nM; in test [2], 93.7 nM; in test [3], 5.32 nM; in test [4] it was 4.9 nM. Further, the “Ratio IC50” value in the test with KB came to 18.
For `CC[C@H](C)[C@H](NC(=O)[C@@]1(C)CCCN1C)C(=O)N(C)[C@H](C[C@@H](OC(C)=O)c1nc(C(=O)NCCc2cscn2)cs1)C(C)C` the same measures were 61.3 nM, 198 nM, 86.6 nM, 33.2 nM and 2.
For `CC[C@H](C)[C@H](NC(=O)[C@@]1(C)CCCN1C)C(=O)N(C)[C@H](C[C@@H](OC(C)=O)c1nc(C(=O)NC(CO)Cc2ccccc2)cs1)C(C)C` (mixture of isomers) the same measures were 29.1 nM, 69.2 nM, 18 nM, 16.5 nM and 4.
Take `CC[C@H](C)[C@H](NC(=O)[C@H]1CCCCN1C)C(=O)N(C)[C@H](C[C@@H](OC(C)=O)c1nc(C(=O)NCCc2cscn2)cs1)C(C)C`: the IC50 in test [1] came to 9 nM; in test [2], 17.5 nM; in test [3], 3.69 nM; in test [4], 6.45 nM. Further, in the test with KB, the “Ratio IC50” value came to 5.
On to `CC[C@H](C)[C@H](NC(=O)[C@H]1CCCN1C)C(=O)N(C)[C@H](C[C@@H](OC(C)=O)c1nc(C(=O)N[C@@H](Cc2ccccc2)C[C@H](C)C(=O)OC)cs1)C(C)C`, for which the IC50 in test [1] came to 2.88 nM; in test [2] it was 7.88 nM; in test [3], 1.26 nM; in test [4] it was 0.67 nM. Further, the “Ratio IC50” value in the test with KB is recorded as 6.
Regarding `CC[C@H](C)[C@H](NC(=O)[C@@]1(C)CCCN1C)C(=O)N(C)[C@H](C[C@@H](O)c1nc(C(=O)N[C@@H](Cc2ccc(N)cc2)C[C@H](C)C(=O)O)cs1)C(C)C`, the half-maximal inhibitory concentration (IC50) in test [1] was greater than 1000 nM; in test [2], greater than 1000 nM; in test [3] it was 769 nM; in test [4], greater than 1000 nM.
For the molecule `CC[C@H](C)[C@H](NC(=O)[C@H]1CCCCN1)C(=O)N(C)[C@H](C[C@@H](OC(C)=O)c1nc(C(=O)N[C@@H](Cc2ccccc2)C[C@H](C)C(=O)OC)cs1)C(C)C`, the IC50 in test [1] came out at 7.74 nM; in test [2], 141 nM; in test [3], 2.6 nM; in test [4], 1.68 nM. In addition, the “Ratio IC50” value with KB worked out at 54.
Consider `CC[C@H](C)[C@H](NC(=O)[C@@]1(C)CCCN1C)C(=O)N(C)[C@H](C[C@@H](OC(C)=O)c1nc(C(=O)NCCn2nnc3ccccc32)cs1)C(C)C`, for which the IC50 in test [1] was found to be 11.8 nM; in test [2] it was 46.3 nM; in test [3], 11.5 nM; in test [4] it was 9.05 nM. Moreover, the “Ratio IC50” value in the test on KB is recorded as 4.
Consider `CC[C@H](C)[C@H](NC(=O)[C@H]1CCCCN1C)C(=O)N(C)[C@H](C[C@@H](OC(C)=O)c1nc(C(=O)N[C@@H](Cc2ccccc2)C[C@H](C)C(=O)OC)cs1)C(C)C`, for which the IC50 was 0.32 nM in test [1], 0.7 nM in test [2], 0.22 nM in test [3] and 0.22 nM in test [4]. For the same molecule, the “Ratio IC50” value in the test with KB turned out to be 3.
On to `CC[C@H](C)[C@H](NC(=O)[C@H]1CCCCN1C)C(=O)N(C)[C@H](C[C@@H](OC(C)=O)c1nc(C(=O)N[C@@H](Cc2ccccc2)C[C@H](C)C(=O)O)cs1)C(C)C`, for which the IC50 was 0.46 nM in test [1], 1.1 nM in test [2], 0.33 nM in test [3] and 0.13 nM in test [4]. Also, in the test with KB, the “Ratio IC50” value is given as 3.
For `CC[C@H](C)[C@H](NC(=O)[C@@]1(C)CCCN1C)C(=O)N(C)[C@H](C[C@@H](OC(C)=O)c1nc(C(=O)N[C@@H](Cc2ccccc2)C[C@H](C)C(=O)O)cs1)C(C)C` the same measures were 0.13 nM, 1.02 nM, 0.11 nM, 0.07 nM and 9.
In the case of `CCNC(=O)O[C@H](C[C@H](C(C)C)N(C)C(=O)[C@@H](NC(=O)[C@@]1(C)CCCN1C)[C@@H](C)CC)c1nc(C(=O)N[C@@H](Cc2ccc(N)cc2)C[C@H](C)C(=O)O)cs1`, the IC50 in test [1] turned out to be 1.92 nM; in test [2] it was 4.53 nM; in test [3], 0.77 nM; in test [4] it was 1.94 nM. Besides, in the test on KB, the “Ratio IC50” value came out at 6.
For `CC[C@H](C)[C@H](NC(=O)C(C)(C)N(C)C)C(=O)N(C)[C@H](C[C@@H](OC(C)=O)c1nc(C(=O)N[C@@H](Cc2ccccc2)C[C@H](C)C(=O)OC)cs1)C(C)C` the same measures were 9.76 nM, 53.9 nM, 4.68 nM, 3.37 nM and 11.
`CC[C@H](C)[C@H](NC(=O)[C@H]1CCCCN1C)C(=O)N(C)[C@H](C[C@@H](OC(C)=O)c1nc(C(=O)NCCn2nnc3ccccc32)cs1)C(C)C`: the IC50 in test [1] worked out at 1.23 nM; in test [2] it was 15.6 nM; in test [3], 1.44 nM; in test [4], 0.83 nM. Moreover, the “Ratio IC50” value in the test with KB turned out to be 11.
Regarding `CC[C@H](C)[C@H](NC(=O)[C@H]1CCCCN1C)C(=O)N(C)[C@H](C[C@@H](OC(C)=O)c1nc(C(=O)N[C@@H](Cc2ccccc2)C(=O)N2CCCCC2)cs1)C(C)C`, the half-maximal inhibitory concentration (IC50) in test [1] was 6.75 nM; in test [2], 20.1 nM; in test [3], 3.71 nM; in test [4], 6.32 nM. In the test with KB, the “Ratio IC50” value was found to be 5.
For `CC[C@H](C)[C@H](NC(=O)[C@@]1(C)CCCN1C)C(=O)N(C)[C@H](C[C@@H](OC(C)=O)c1nc(C(=O)N[C@@H](Cc2ccc(N)cc2)C[C@H](C)C(=O)O)cs1)C(C)C` the same measures were 1.11 nM, 2.77 nM, 0.5 nM, 0.9 nM and 5.
For `CC[C@H](C)[C@H](NC(=O)[C@H](NC)C(C)C)C(=O)N(C)[C@H](C[C@@H](OC(C)=O)c1nc(C(=O)N[C@@H](Cc2ccccc2)C[C@H](C)C(=O)OC)cs1)C(C)C` the same measures were 0.89 nM, 33.6 nM, 1.76 nM, 1.06 nM and 19.
For `CC[C@H](C)[C@H](NC(=O)[C@H]1CCCCN1C)C(=O)N(C)[C@H](C[C@@H](OC(C)=O)c1nc(C(=O)N[C@H](CNS(C)(=O)=O)Cc2ccccc2)cs1)C(C)C` the same measures were 0.47 nM, 31.7 nM, 0.89 nM, 0.27 nM and 36.
With `CC[C@H](C)[C@H](NC(=O)[C@@]1(C)CCCN1C)C(=O)N(C)[C@H](C[C@@H](OC(C)=O)c1nc(C(=O)N[C@@H](Cc2ccccc2)C(O)c2nccs2)cs1)C(C)C` (mixture of isomers), the IC50 in test [1] is 11.1 nM; in test [2], 39.4 nM; in test [3], 8.64 nM; in test [4], 6.39 nM. The “Ratio IC50” value in the test on KB is 5.
For `CC[C@H](C)[C@H](NC(=O)[C@H]1CCCCN1C)C(=O)N(C)[C@H](C[C@@H](OC(C)=O)c1nc(C(=O)N[C@@H](Cc2ccccc2)CN2CCOCC2)cs1)C(C)C` the same measures were 0.49 nM, 5.47 nM, 1.02 nM, 0.31 nM and 5.
For `CC[C@H](C)[C@H](NC(=O)[C@@]1(C)CCCN1C)C(=O)N(C)[C@H](C[C@@H](OC(C)=O)c1nc(C(=O)N[C@@H](Cc2ccccc2)c2nccs2)cs1)C(C)C` the same measures were 29.5 nM, 104 nM, 37.9 nM, 22 nM and 3.

The record behind these values is ChEMBL document CHEMBL3862032, “Design, Synthesis, and Cytotoxic Evaluation of Novel Tubulysin Analogues as ADC Payloads” (ACS Med Chem Lett, 2016).
